Test results: patent US20240108559A1, “TOPICAL COMPOSITIONS CONTAINING SYNTHETIC ESTERS OF SINAPINIC ACID AND METHODS FOR TREATING KERATIN SURFACES” (ELC MANAGEMENT LLC, priority 2017, published 2024)
Structures can show the parent of a compound that is named as a salt.

Assays:
[1] = UV absorbance peak stability over time and temperature (UV visible spectroscopy); format: physicochemical; conditions: 1.4 and 14 ppm in 50/50 water and butylene glycol, time 0, week 1, 2, 4, 25°, 40°, 50° C., FIG. 1, FIG. 2
Method: Sinapoyl malate and CAPE were evaluated for UV absorption. 50 and 100 ppm of each compound was dissolved in water and a second sample set of isopropanol. Additional samples of sinapyl malate and CAPE were prepared by dissolving 0.025% and 0.05% of each ingredient in a 50/50 mixture of water and butylene glycol. Further dilution to obtain a concentration of 1.4 ppm and 14 ppm was performed.
The samples were tested for UV absorption across the UV range by measuring with an Agilent 8453 UV visible spectroscopy system at wavelengths ranging across 200 to 450 nm at time 0, week 1, week 2, and week 4. The term “NA” means that a previously observed absorbance peak was no longer visible. The term “peak” means the two highest absorbance peaks in the UV spectrum. The term “valley” means the two lowest point between the absorbance peaks. In the case where there is only one peak or valley it means that the other, previously observed peak or valley was deteriorated at the time and temperature of the stability study. In the case where all peaks and valleys are indicated “NA” it means that the sample deteriorated entirely and no longer absorbed in the UV range at all.

melting point [°C] | Compound | stability of UV absorbance peaks over time and temperature [1]
 | COc1cc(/C=C/C(=O)OC(CC(=O)O)C(=O)O)cc(OC)c1O (stereo not drawn) [Sinapoyl malate] | more stable over time and temperature
 | O=C(/C=C/c1ccc(O)c(O)c1)OCCc1ccccc1 [CAPE, reference compound] | much less stability over time and temperature
55 to 65 | COc1cc(/C=C/C(=O)OC(CC(=O)O)C(=O)O)cc(OC)c1O (stereo not drawn) (as salt: malate) [Sinapoyl malate] | 
